The source of these data is US11273136B2, “Method for increasing protein content in milk of lactating cows” (neopharma Japan Co., Ltd., priority 2019, dated 2022).

The structures appear in SMILES notation.

The test system of this test is lactating Holstein milk cows. As to the kind of experiment: Crossover feeding test of 5-ALA-supplemented total mixed ration on milk yield and milk composition of lactating cows. The test is classed as in vivo. An excerpt:
Effects of ALAs on the milk composition of a lactating cow was studied. Six lactating Holstein milk cows (average body weight 698±18 kg, average milk production 24.1±1.6 kg/d, average days-in-milk (DIM) 209±34 days, and average number of lactations 2.9±0.4) were placed in a free stable. After a 7-day grace period, 6 cows were randomly assigned to section A and section B (each group n=3). Section A had, after a grace period, an ALA administration period of 14 days (ALA Consumption Group A), with an adjustment period of 7 days interposed, followed by an ALA non-administration period of 14 days (Control Group A), whereas Section B had, after a grace period, an ALA non-administration period of 14 days (Control Group B), with an adjustment period of 7 days interposed, followed by an ALA administration period of 14 days (ALA Consumption Group B), whereby the test was carried out by the crossover method. A total mixed ration (TMR) (see Table 2) which had been used was fed during the above grace period, adjustment period and ALA non-administration period, and a feed to which 10 mg of 5-ALA was added per kg of the total mixed ration (TMR) was fed during the ALA administration period.
5-ALA was provided by neopharma Japan Co., Ltd. Each feed and water were available at any time but feed consumption of each group on a dry base was 23.4 kg/day per cow in the control groups and 23.6 kg/day per cow in the ALA groups. Thus, the daily consumption of 5-ALA in the ALA groups was 0.329.6 mg to 0.347.1 mg/kg b.w./day. Each of the milk cows was milked at 09:00 and 17:00 and allowed to consume each feed at any time after milking.
Amounts of Milking from each cow were automatically recorded everyday by an auto milk recorder (manufactured by ORION MACHINERY CO., LTD.). Additionally, for each group of Section A and Section B, during the last 2 days in the ALA administration period of 14 days and the non-administration period of 14 days, 50 to 100 mL of milk was collected twice a day from cows of each period to use as milk samples for data analysis. The milk samples were preserved at −30° C. until the milk composition and the like were analyzed.
Using the above milk samples collected from each of the cows, the milk composition such as milk fat, proteins, casein, lactose, total solid (TS), solid not fat (SNF), milk urea nitrogen (MUN) and somatic cell count (SCC) was measured using a […] infrared spectroscopy (Milko-Scan, 133N, manufactured by Foss Electric, Hill-erod (Denmark)). Data of each cow were calculated as an average value of 4 milk samples collected for 2 days. For each group of Section A and Section B, the data average of the ALA administration periods (ALA Group A and ALA Group B) was shown under the item of ALA consumption groups, and the data average of the non-administration periods (Control Group A and Control Group B) was shown under the item of Control groups. The data were analyzed statistically as a crossover design using the mixing procedure of SPSS (PASW Statistics 18.0, manufactured by IBM). Statistical analysis of each result was carried out by mixed model and p<0.05(*) meant statistically significant difference. A tendency toward significance was considered at p<0.10.

The mark [1] stands for this setting: 10 mg 5-ALA per kg TMR, 14 days, milk of last 2 days, ± standard error.
Where [2] appears, read: 10 mg 5-ALA per kg TMR, 14 days, milk of last 2 days, ± standard error, p<0.05 vs control.
The mark [3] stands for this setting: feed to which 5-ALA was added, p<0.05.

On to `NCC(=O)CCC(=O)O` [5-ALA, 5-aminolevulinic acid], for which, under “10 mg 5-ALA per kg TMR fed for 14 days, crossover, n=6, ± standard error”, the Milk yield turned out to be 23.78 ± 1.67 kg/day. Under setting [1], the “Milk composition: Fat” value is given as 4.42 ± 0.14%, the “Milk composition: Lactose” value is 4.82 ± 0.02%, the “Milk composition: Non-fat solid” value came to 9.03 ± 0.17% and the “Milk composition: Overall solid” value turned out to be 13.34 ± 0.28%. Also, under setting [2], the “Milk composition: Casein” value is 2.71 ± 0.09 a % and the “Milk composition: Proteins” value was determined as 3.51 ± 0.12 a %. Further, for the setting “feed to which 5-ALA was added”, the “Lactose compared with Control Groups” value is given as “no particular differences”, the “Milk fat compared with Control Groups” value was “no particular differences”, the “Milk yield compared with Control Groups” value is listed as “no particular differences” and the “Non-fat solid compared with Control Groups” value is on record as “no particular differences”. The “Overall solid compared with Control Groups” value (feed to which 5-ALA was added) is “no particular differences”. Moreover, under setting [3], the “Casein content in milk compared with Control Groups” value is listed as “increased significantly” and the “Protein content in milk compared with Control Groups” value is “increased significantly”.
